# Data published in ChEMBL document CHEMBL3301448, “MMV Malaria Box screening against Toxoplasma gondii and Entamoeba histolytica”.
# Tested on: Entamoeba histolytica
# Assay: MMV: Primary screening was performed with each compound at a 30 uM final concentration and in triplicate in sealed 96-well polystyrene microtiter plates. Parasite inocula (100 ul) comprising 20000 parasites/ml were added to each well and grown at 37 degrees C in a humidified atmosphere of 5% CO2 for 72 h. Positive controls consisted of metronidazole at 1 mg/ml. The growth of E. histolytica trophozoites in each well was determined microscopically by measuring the diameters of the confluent cells in drug-containing wells relative to those in the nega- tive-control wells.
# Type: functional, organism-based
# Settings: not given
row,SMILES,IC50 [µM]
1,CCOc1cc2c(cc1OCC)C(c1cc(Cl)ccc1O)NCC2 (configuration not stated),> 30
2,COc1ccc(C2C(C(=O)Nc3cccc(OC)c3)c3ccccc3C(=O)N2C2CCCCC2)cc1 (configuration not stated),> 30
3,c1ccc2c(NCCc3c[nH]c4ccccc34)c3ccccc3nc2c1,> 30
4,O=C(Nc1ccc(C23CC4CC(CC(c5ccccc5)(C4)C2)C3)cc1)c1cccs1,> 30
5,CCN(CC)CCCNc1ccnc2cc3ccccc3cc12,> 30
6,CCOC(=O)c1cnc2c(C)cccc2c1Nc1ccc(C(C)=O)cc1,> 30
7,O=C(Nc1ccc(-c2nc3cc4ccccc4cc3[nH]2)cc1)c1cccc(Br)c1,> 30
8,Cc1ccc(-c2nc3ccccc3o2)cc1NCc1cc(Cc2ccccc2)ccc1O,> 30
9,Cc1ccc(C2CC(C(F)(F)F)n3nc(C(=O)N4CCN(C(c5ccccc5)c5ccccc5)CC4)cc3N2)cc1 (configuration not stated),> 30
10,Cc1ccc2nc(C)cc(Nc3cccc(C(F)(F)F)c3)c2c1,> 30
11,COc1cccc(C(=O)NC(c2ccc(C)cc2)c2cc(Cl)c3cccnc3c2O)c1 (configuration not stated),> 30
12,COc1ccc(C(O)(CCC(C)C)C(CN2CCOCC2)c2ccc(Cl)cc2)cc1 (configuration not stated),> 30
13,COc1ccc(-c2cc(=O)oc3c4c(ccc23)OCN(Cc2ccc(F)cc2)C4)cc1,> 30
14,CCCOCc1cc(CN2CCN(c3cccc(Cl)c3)CC2)c(O)c2ncccc12,> 30
15,O=C(Cc1ccccc1)NC(c1ccc(Cl)cc1)c1c(O)ccc2ccccc12 (configuration not stated),> 30
16,CCOc1ccc2c(c1)CN(Cc1ccc(Cl)cc1)CO2,> 30
17,CCCCC(O)(c1ccc(Cl)cc1)C(CN1CCOCC1)c1ccc(Cl)cc1 (configuration not stated),> 30
18,c1ccc(CNc2nc(Nc3ccccc3)nc3ccccc23)cc1,> 30
19,COc1ccc(C(=O)NC(c2ccccc2Cl)c2cc(Cl)c3cccnc3c2O)cc1 (configuration not stated),> 30
20,Cc1cccc(N2C(=O)C3C(C2=O)C2(c4ccccc4)C(=O)C3(c3ccccc3)C(c3ccc4c(c3)OCO4)=C2c2ccc3c(c2)OCO3)c1 (configuration not stated),> 30
21,Cc1cc(=O)oc2c1ccc1oc(C(=O)c3ccccc3)c(C)c12,> 30

row,SMILES,IC50 [µM]
1,COc1ccc2c(c1OC)C(=O)N1c3ccccc3N=C(c3ccc(C)cc3)CC21 (configuration not stated),> 30
2,CCCCCCc1cc(O)c2c3c(c(=O)oc2c1)CCC(C)C3 (configuration not stated),> 30
3,CCCc1c(C)nc2ccc(Br)cc2c1O,> 30
4,COc1ccc(CCNC(=O)c2cc(S(=O)(=O)N3CC(C)CC(C)C3)ccc2Sc2ccc(F)cc2)cc1OC (configuration not stated),> 30
5,Cc1ccc(F)cc1NC(=O)c1cc(Cl)ccc1Nc1ccccc1,> 30
6,CCOc1ccc(Nc2c3ccccc3nc3ccccc23)cc1,> 30
7,CCOc1ccc2nc(C)cc(Nc3ccc(Br)cc3)c2c1,> 30
8,CC1=C(CC(=O)c2cccc([N+](=O)[O-])c2)C(=O)c2ccccc2C1=O,> 30
9,COc1cc2c3cc1Oc1c(OC)c(OC)cc4c1C(Cc1ccc(O)c(c1)Oc1ccc(cc1)CC3N(C)CC2)N(C)CC4 (configuration not stated),> 30
10,CCCCCCc1cc2cc(-c3nc4ccccc4[nH]3)c(=Nc3ccccc3C)oc2cc1O,> 30
11,CCCCCCC(O)(c1ccc(F)cc1)C(CN1CCOCC1)c1ccccc1 (configuration not stated),> 30
12,COc1cc(OC)cc(N2C(=O)N(Cc3ccc(C(C)(C)C)cc3)c3ccccc3S2(=O)=O)c1,> 30
13,CCOc1c(Br)cc(C2C(C(=O)OC)=CN(C)C=C2C(=O)OC)cc1OC,> 30
14,COc1ccc2sc(N(Cc3cccnc3)C(=O)c3ccc(C#N)cc3)nc2c1,> 30
15,CC1CC2=C(CC1CNCCCN(C)C)C(C)(C)CCC2 (configuration not stated),> 30
16,CN(C)c1ccc(N=Cc2ccc(N3CCOCC3)cc2)cc1,> 30
17,COc1ccccc1N1C(=N)SC(=Cc2ccc(OCc3ccccc3F)cc2)C1=O,> 30
18,CCOC(=O)C1=CN(C)C=C(C(=O)OCC)C1c1cc(Br)c(OCC)c(OC)c1,> 30
19,CCOC(=O)c1c[nH]c2c(CC)cccc2c1=O,> 30
20,CCCCc1c(CCC)c(=N)c2ccccc2n1C,> 30

# Tested on: Toxoplasma gondii
# Assay: MMV: A total of 100ul of inoculum was added to each well (parasite/cell ratio, ~10:1; final volume, 200 ul). Six hours after inoculation, nonadherent parasites were removed, and 100 ul of complete DMEM (1% penicillin-streptomycin, 3% FBS) supplemented with inhibitors at different concentrations (2-fold serial dilutions starting from 30 uM) was added to all except the negative-control wells. Positive controls, consisting of pyrimethamine (PYR) and sulfadiazine (SDZ) (20-mg/ml stocks in DMSO), were tested at a 2mg/ml final concentration. Each test was performed in triplicate.
# Type: functional, organism-based
# Settings: 6 h
row,SMILES,IC50 [µM]
1,CCOc1cc2c(cc1OCC)C(c1cc(Cl)ccc1O)NCC2 (configuration not stated),> 30
2,COc1ccc(C2C(C(=O)Nc3cccc(OC)c3)c3ccccc3C(=O)N2C2CCCCC2)cc1 (configuration not stated),> 30
3,c1ccc2c(NCCc3c[nH]c4ccccc34)c3ccccc3nc2c1,3.05
4,O=C(Nc1ccc(C23CC4CC(CC(c5ccccc5)(C4)C2)C3)cc1)c1cccs1,> 30
5,CCN(CC)CCCNc1ccnc2cc3ccccc3cc12,> 30
6,CCOC(=O)c1cnc2c(C)cccc2c1Nc1ccc(C(C)=O)cc1,> 30
7,O=C(Nc1ccc(-c2nc3cc4ccccc4cc3[nH]2)cc1)c1cccc(Br)c1,> 30
8,Cc1ccc(-c2nc3ccccc3o2)cc1NCc1cc(Cc2ccccc2)ccc1O,> 30
9,Cc1ccc(C2CC(C(F)(F)F)n3nc(C(=O)N4CCN(C(c5ccccc5)c5ccccc5)CC4)cc3N2)cc1 (configuration not stated),> 30
10,Cc1ccc2nc(C)cc(Nc3cccc(C(F)(F)F)c3)c2c1,> 30
11,COc1cccc(C(=O)NC(c2ccc(C)cc2)c2cc(Cl)c3cccnc3c2O)c1 (configuration not stated),> 30
12,COc1ccc(C(O)(CCC(C)C)C(CN2CCOCC2)c2ccc(Cl)cc2)cc1 (configuration not stated),> 30
13,COc1ccc(-c2cc(=O)oc3c4c(ccc23)OCN(Cc2ccc(F)cc2)C4)cc1,> 30
14,CCCOCc1cc(CN2CCN(c3cccc(Cl)c3)CC2)c(O)c2ncccc12,> 30
15,O=C(Cc1ccccc1)NC(c1ccc(Cl)cc1)c1c(O)ccc2ccccc12 (configuration not stated),> 30
16,CCOc1ccc2c(c1)CN(Cc1ccc(Cl)cc1)CO2,> 30
17,CCCCC(O)(c1ccc(Cl)cc1)C(CN1CCOCC1)c1ccc(Cl)cc1 (configuration not stated),> 30
18,c1ccc(CNc2nc(Nc3ccccc3)nc3ccccc23)cc1,> 30
19,COc1ccc(C(=O)NC(c2ccccc2Cl)c2cc(Cl)c3cccnc3c2O)cc1 (configuration not stated),> 30
20,Cc1cccc(N2C(=O)C3C(C2=O)C2(c4ccccc4)C(=O)C3(c3ccccc3)C(c3ccc4c(c3)OCO4)=C2c2ccc3c(c2)OCO3)c1 (configuration not stated),> 30
21,Cc1cc(=O)oc2c1ccc1oc(C(=O)c3ccccc3)c(C)c12,> 30

row,SMILES,IC50 [µM]
1,COc1ccc2c(c1OC)C(=O)N1c3ccccc3N=C(c3ccc(C)cc3)CC21 (configuration not stated),> 30
2,CCCCCCc1cc(O)c2c3c(c(=O)oc2c1)CCC(C)C3 (configuration not stated),> 30
3,CCCc1c(C)nc2ccc(Br)cc2c1O,> 30
4,COc1ccc(CCNC(=O)c2cc(S(=O)(=O)N3CC(C)CC(C)C3)ccc2Sc2ccc(F)cc2)cc1OC (configuration not stated),> 30
5,Cc1ccc(F)cc1NC(=O)c1cc(Cl)ccc1Nc1ccccc1,> 30
6,CCOc1ccc(Nc2c3ccccc3nc3ccccc23)cc1,> 30
7,CCOc1ccc2nc(C)cc(Nc3ccc(Br)cc3)c2c1,> 30
8,CC1=C(CC(=O)c2cccc([N+](=O)[O-])c2)C(=O)c2ccccc2C1=O,> 30
9,COc1cc2c3cc1Oc1c(OC)c(OC)cc4c1C(Cc1ccc(O)c(c1)Oc1ccc(cc1)CC3N(C)CC2)N(C)CC4 (configuration not stated),> 30
10,CCCCCCc1cc2cc(-c3nc4ccccc4[nH]3)c(=Nc3ccccc3C)oc2cc1O,6.28
11,CCCCCCC(O)(c1ccc(F)cc1)C(CN1CCOCC1)c1ccccc1 (configuration not stated),> 30
12,COc1cc(OC)cc(N2C(=O)N(Cc3ccc(C(C)(C)C)cc3)c3ccccc3S2(=O)=O)c1,> 30
13,CCOc1c(Br)cc(C2C(C(=O)OC)=CN(C)C=C2C(=O)OC)cc1OC,> 30
14,COc1ccc2sc(N(Cc3cccnc3)C(=O)c3ccc(C#N)cc3)nc2c1,> 30
15,CC1CC2=C(CC1CNCCCN(C)C)C(C)(C)CCC2 (configuration not stated),> 30
16,CN(C)c1ccc(N=Cc2ccc(N3CCOCC3)cc2)cc1,> 30
17,COc1ccccc1N1C(=N)SC(=Cc2ccc(OCc3ccccc3F)cc2)C1=O,> 30
18,CCOC(=O)C1=CN(C)C=C(C(=O)OCC)C1c1cc(Br)c(OCC)c(OC)c1,> 30
19,CCOC(=O)c1c[nH]c2c(CC)cccc2c1=O,> 30
20,CCCCc1c(CCC)c(=N)c2ccccc2n1C,> 30
